Assay: Human HepG2 cell viability assay in 384 well format
Type: toxicity, cell-based
Parameters: dose 125 nL, time 70.5 hour; cytotoxicity at 70.5 h: concentration not given beside the values
Details: HepG2 cells, read-out: Inhibition

Row | Structure (SMILES) | cytotoxicity at 70.5 h
1 | COc1cc2cc(C(=O)O)n(C)c2c(OC)c1OC | -10.1%
2 | NC(=O)Cn1ccc(O)c(Cc2ccc(Cl)cc2Cl)c1=O | 3.22%
3 | O=C(NCC(F)(F)C(F)F)c1ccncc1 | -8.69%
4 | Cc1cc(C(=O)NCc2cccn2C)nn1C | 15.6%
5 | COc1ccnc(NCc2ccccc2Cn2cccn2)n1 | -1.62%
6 | COc1ccc(-c2cc(N)on2)cc1OC | -2.02%
7 | Cn1c(=O)c2cc(C(=O)NCCc3ccccc3)ccc2n(C)c1=O | -1.15%
8 | CC(C)CCC(=O)N1CCN(C(=O)c2ccc(-n3cccn3)cc2)CC1 | -3.97%
9 | Cc1nc2c(Nc3cccc(C#N)c3)nc(N)nc2n1C | 4%
10 | O=C1CN(c2ccc(CNC(=O)Nc3nnc(C4CC4)s3)cc2)CCN1 | 21.5%
11 | CC(Cc1ccco1)NC(=O)Nc1ccc(S(C)(=O)=O)nc1 (centres undefined) | -2.2%
12 | Cn1c(=O)oc2cc(S(=O)(=O)N3CCC(c4ccccc4)C3)c(Cl)cc21 (centres undefined) | 25%
13 | Cc1cc(N2CCC(O)CC2)nc(C)n1 | 1.14%
14 | Cc1c(C(=O)O)sc2nc(C(F)(F)F)ccc12 | -18.5%
15 | CCC(NC(=O)CN(C)Cc1ccc(C)o1)c1ccc(Br)cc1 (centres undefined) | -1.78%
16 | Cc1cc2cc(Nc3c(C#N)c(=O)n(C)c(=O)n3C)ccc2[nH]1 | -5.45%
17 | Cc1cc(S(=O)(=O)N(CC(N)=O)CC(C)C)ccc1Br | 11.4%
18 | Cc1ncc(CN(C)Cc2nc3cc(Cl)ccc3n2C)s1 | -18.2%
19 | O=C(COCC(F)(F)F)Nc1nncs1 | 10.8%
20 | CN(Cc1ccccc1C(F)(F)F)C(C(N)=O)c1ccccc1 (centres undefined) | 10.2%
21 | CC(c1ccc(F)cc1)N1CCN(Cc2ccc(C#N)cc2)CC1 (centres undefined) | -11.6%
22 | COc1ccc(NC(=O)CSc2nc(C)cc(C)n2)cn1 | -8.52%
23 | Cc1c(CNCc2nn(-c3ccccc3)c3c2CCC3)cc(C#N)n1C | 4.96%
24 | OC(c1ccccc1)C1CCN(Cc2csc(-c3ncccn3)n2)CC1 (centres undefined) | -7.96%

Row | Structure (SMILES) | cytotoxicity at 70.5 h
25 | COCc1cccc(NC(=O)NCCCN(C)S(C)(=O)=O)c1 | -10.1%
26 | COc1cc(OC)cc(C2NC(=O)CN2Cc2ccc(Br)cc2)c1 (centres undefined) | -8.73%
27 | CCOc1ccc(Oc2cc(CN)ccn2)cc1 | -27.6%
28 | Cc1nn(C(C)C)c(C)c1NC(=O)Nc1cccnc1N1CCCC1 | -8.9%
29 | CN(C)C(=O)Cn1cc(C(=O)NCCc2ccc(C(F)(F)F)cc2)nn1 | 30.1%
30 | CC(C)(C)C(CCO)NC(=O)Nc1ccncc1 (centres undefined) | 23.3%
31 | CCCNC(=O)CNC(=O)CCc1ccccc1Br | -7.6%
32 | CC(C)COC(C)C(=O)NCCNS(C)(=O)=O (centres undefined) | -7.36%
33 | Cn1ccnc1CCNS(=O)(=O)c1cccnc1 | -4.82%
34 | Cc1cccc(OC2CCN(C(=O)NCCn3ccnc3)CC2)c1C | -3.44%
35 | CN(C)c1cc(C(=O)NCC2(c3ccc(F)cc3)CC2)ccn1 | -1.65%
36 | CNC(=O)CN1CCC(NC(=O)C(C)Oc2ccccc2C#N)CC1 (centres undefined) | -3.18%
37 | O=c1c2ccccc2nnn1CN(CC1CCOC1)C1CC1 (centres undefined) | -2.98%
38 | Cc1noc(C)c1CNCc1nn(-c2ccccc2)c2c1CCC2 | -3.23%
39 | COCCOc1ccc(NC(=O)N(CCO)C2CC2)cn1 | -10.9%
40 | Cc1cn2nc(N3CCCC3C(=O)N3CCN(C)CC3)sc2n1 (centres undefined) | 13.5%
41 | CC(C)(C)OC(=O)NC(C)(C)c1noc(Cn2ccnc2)n1 | -4.72%
42 | COc1ccc(CCC(=O)NCCC2CCCO2)cc1Br (centres undefined) | -7.13%
43 | COCCOc1ccc(CNc2cnc3ccccc3n2)cn1 | -10.9%
44 | Fc1ccc(C2CN(c3ncnc4nc[nH]c34)CCO2)cc1 (centres undefined) | -11.9%
45 | c1ccc2oc(C3CCN(Cc4ncon4)CC3)nc2c1 | -0.981%
46 | COC(=O)c1ccc(NC(=O)CCNCc2ccco2)cc1 | -7.22%
47 | Cc1c(C(=O)O)sc2nc(Cc3ccccc3)nc(N)c12 | -3.73%
48 | Cc1ccc(CNC(=O)C2CCN(C(=O)c3ccco3)CC2)n1C | 20.7%

Row | Structure (SMILES) | cytotoxicity at 70.5 h
49 | O=C(CSc1nncs1)N1CCN(Cc2ccc(Cl)s2)CC1 | -9.92%
50 | CN(C)c1nc(N)nc(CN2CCC(c3nc4ccccc4o3)CC2)n1 | -7.79%
51 | O=C1NCCCCC1Sc1nnc(C2CC2)n1C1CC1 (centres undefined) | -5.95%
52 | CCN(C1CCS(=O)(=O)C1)S(=O)(=O)c1cccc2cc(C)cnc12 (centres undefined) | 2.06%
53 | Cc1c(C(=O)O)oc2ccc(I)cc12 | -5.09%
54 | CC(=O)N1CCCC(C(=O)Nc2ccccc2Cc2ccccc2)C1 (centres undefined) | 3.24%
55 | Cc1ccccc1C(=O)NC(C)CN1CCOC1=O (centres undefined) | -3.59%
56 | CC(C)c1nc(CSc2nnc(C3CC3)n2CC(N)=O)no1 | -7.31%
57 | Cc1nccc(-c2cccc(NCc3nc(C(C)C)no3)c2)n1 | -10.6%
58 | c1ccc2c(c1)COC1(CCCC1)N2 | 22.7%
59 | OCc1ccc(OCC(F)(F)F)cc1 | -8.76%
60 | Cc1nc(Nc2ccccn2)cc(N2CCN(S(C)(=O)=O)CC2)n1 | 11.2%
61 | CCOC(=O)CCC(=O)N1CCC(CSCc2ccco2)CC1 | -12%
62 | COCCc1noc(C2CCN(C(=O)Nc3cccs3)CC2)n1 | -4.24%
63 | COCC(=O)N1CCc2[nH]c(=O)ccc2C1 | -8.99%
64 | O=c1ccc2c([nH]1)CCN(S(=O)(=O)c1ccc3c(c1)CCCC3)C2 | 3.55%
65 | CC(C)Oc1ccc(C(=O)N2CCCSCC2CN(C)C)cc1 (centres undefined) | 26.1%
66 | CN(C)CC1CSCCCN1C(=O)c1ccsc1 (centres undefined) | -6.74%
67 | CN(C)CC1CSCCCN1S(=O)(=O)c1ccc(C(F)(F)F)cc1 (centres undefined) | -3.11%
68 | O=C(c1ccc2[nH]ccc2c1)N1CCCSCC1CN1CCCC1 (centres undefined) | -2.63%
69 | O=C(COc1ccc(F)cc1)N1CCCSCC1CN1CCOCC1 (centres undefined) | 5.05%
70 | Cc1cccc(NC(=O)C2CSc3ncc(C)c(=O)n3C2)n1 (centres undefined) | -9.15%
71 | Cc1ccncc1NC(=O)C1CSc2ncc(C)c(=O)n2C1 (centres undefined) | 18.9%
72 | CCc1c(C)nc2n(c1=O)CC(C(=O)NCc1cccs1)CS2 (centres undefined) | 23%

Row | Structure (SMILES) | cytotoxicity at 70.5 h
73 | COc1cc(C(=O)NCCc2ccc(OC)c(OC)c2)on1 | -2.98%
74 | O=C(Cc1cccs1)NCC1(O)CCc2ccccc2C1 (centres undefined) | -7.27%
75 | CN(C)c1ccc(C(O)CNC(=O)NCCCc2ccccc2)cc1 (centres undefined) | -9.74%
76 | CSc1ccc(C(O)CNS(=O)(=O)C2CC2)cc1 (centres undefined) | 2.97%
77 | COCCN(Cc1ccoc1)S(=O)(=O)c1ccc(F)c(C)c1 | -11%
78 | CCOCC(=O)NCCC(O)c1ccoc1 (centres undefined) | -11.9%
79 | Cc1cc(C(O)CCNC(=O)COc2ccccc2C)c(C)o1 (centres undefined) | -2.27%
80 | CSc1ncccc1C(=O)NCCC(O)c1cc(C)oc1C (centres undefined) | -1.76%
81 | COC1(CNC(=O)c2ccc(F)c(F)c2)CCSC1 (centres undefined) | -11.7%
82 | O=C(Nc1cccnc1)c1ccc(-n2cncn2)nn1 | 13.8%
83 | Cc1csc(C(=O)NCCn2nc(-n3cncn3)ccc2=O)c1 | -6.83%
84 | O=C(NCCn1nc(-n2cncn2)ccc1=O)c1ccsc1 | -4.55%
85 | Cc1cc(S(=O)(=O)N2CCC(S(C)(=O)=O)C2)ccc1F (centres undefined) | -5.71%
86 | Cc1ccc(S(=O)(=O)N2CCC(S(C)(=O)=O)CC2)cc1C | -0.502%
87 | O=C(Cn1c(=O)oc2ccccc21)N1Cc2cncnc2C1 | -5.29%
88 | Cn1cnc(S(=O)(=O)NCC(C)(O)c2ccc3c(c2)OCO3)c1 (centres undefined) | -6.14%
89 | Cn1cnc(S(=O)(=O)NCC2(O)CCOc3ccccc32)c1 (centres undefined) | -4.65%
90 | Cc1oncc1C(=O)NCC1(O)CCc2ccccc2C1 (centres undefined) | 0.91%
91 | Cn1cc(S(=O)(=O)NCC2CCN(C(=O)c3ccoc3)CC2)cn1 | -2.52%
92 | O=C(Cc1ccsc1)NCCc1ccoc1 | -8.57%
93 | Cc1nsc(C(=O)NCCc2ccccc2)n1 | -8.39%
94 | Cc1nc(N(C)C)nc(C)c1NC(=O)c1ccccc1C(F)(F)F | -11%
95 | Cc1nc(N2CCOCC2)nc(C)c1NC(=O)Cc1ccc(Cl)cc1 | 13.5%
96 | Cc1nc(N(C)C)nc(C)c1NS(=O)(=O)c1ccccc1Cl | -8.77%

Row | Structure (SMILES) | cytotoxicity at 70.5 h
97 | Cc1nc(N2CCCC2)nc(C)c1NS(C)(=O)=O | 0.704%
98 | Cc1cc(C)c(S(=O)(=O)Nc2c(C)nc(N3CCCC3)nc2C)cc1C | 2.48%
99 | Cc1nc(N2CCCC2)nc(C)c1NS(=O)(=O)c1ccccc1F | -1.28%
100 | CC(C)CC(=O)N1CCN(c2cc(N(C)C)cnn2)CC1 | -3.64%
101 | COc1ncc(NS(=O)(=O)c2cccc(C)c2)c(OC)n1 | 21.8%
102 | COc1ncc(NS(=O)(=O)c2ccc(OC)c(C)c2)c(OC)n1 | 7.97%
103 | Cc1nnsc1C(=O)NCCn1ccc(-c2ccncc2)n1 | 18.8%
104 | O=C(NCCn1ccc(-c2ccncc2)n1)c1ccc2c(c1)OCO2 | 1.76%
105 | O=S(=O)(NCCn1ccc(-c2ccncc2)n1)C1CC1 | 0.267%
106 | CC(C)(C)C(=O)NCCn1ccc(-c2ccccn2)n1 | -1.26%
107 | CS(=O)(=O)NCCn1ccc(-c2cccs2)n1 | -6.85%
108 | Cn1nc(CNS(=O)(=O)Cc2ccccc2F)c2c1CCCC2 | -5.77%
109 | Cc1nnsc1C(=O)NCc1nn(C)c2c1COCC2 | -13.8%
110 | COC(=O)c1ccc(C(=O)NCc2nn(C)c3c2COCC3)cc1 | -4.89%
111 | COCCN1CCC2(CC1)CN(Cc1cccc(C)n1)C(=O)CO2 | 0.221%
112 | Cc1cccc(CN2CC3(CCN(C(=O)C4CC4)CC3)OCC2=O)n1 | 1.74%
113 | Cc1ccc(N2CCc3sc(C(=O)NCCN4CCCC4)cc32)nn1 | -0.377%
114 | COCCNC(=O)[C@H]1C[C@@H]2CCN(c3ncccn3)C[C@@H]2O1 | -4.51%
115 | COc1ccc(CC(=O)N2CCC[C@@H](N)[C@@H]2c2ccccc2F)cc1 | -0.222%
116 | CC(CCc1ccccc1)NC(=O)CNCCCN1CCOCC1 (centres undefined) | 10.1%
117 | Cc1cccc(CN2CC3(CCN(S(=O)(=O)C4CC4)CC3)OCC2=O)n1 | -0.285%
118 | CNC(=O)CN1CC[C@H]2CN(C(=O)c3ccoc3)C[C@H]2C1 | -4.77%
119 | Nc1ncnc2[nH]c(N3CCCCC3)nc12 | -6.41%
